Experimental findings from patent US6642227B2, “Inhibitors of c-Jun N-terminal kinases (JNK) and other protein kinases” (Vertex Pharmaceuticals Incorporated, priority 2001, dated 2003) are described below.

A value given as a limit tells only on which side of the number the result lay.

This test addresses human Lck kinase (UniProt P06239). The experiment in a line: Lck inhibition assay (A: radioactivity-based or B: spectrophotometric coupled-enzyme assay). In kind it is biochemical. Particulars: read-out: Lck Activity (Ki rating). As to the method:
The compounds were evaluated as inhibitors of human Lck kinase using either a radioactivity-based assay or spectrophotometric assay.
The compounds were assayed as inhibitors of full length bovine thymus Lck kinase (from Upstate Biotechnology, cat. no. 14-106) expressed and purified from baculo viral cells. Lck kinase activity was monitored by following the incorporation of ^33p from ATP into the tyrosine of a random poly Glu-Tyr polymer substrate of composition, Glu:Tyr=4:1 (Sigma, cat. no. P-0275). The following were the final concentrations of the assay components: 0.025 M HEPES, pH 7.6, 10 mM MgCl2, 2 mM DTT, 0.25 mg/ml BSA, 10 μM ATP (1-2 μCi ^33P-ATP per reaction), 5 mg/ml poly Glu-Tyr, and 1-2 units of recombinant human […] kinase. In a typical assay, all the reaction components with the exception of ATP were pre-mixed and aliquoted into assay plate wells. Inhibitors dissolved in DMSO were added to the wells to give a final DMSO concentration of 2.5%. The assay plate was incubated at 30 C. for 10 min before initiating the reaction with ^33P-ATP. After 20 min of reaction, the reactions were quenched with 150 μl of 10% trichloroacetic acid (TCA) containing 20 mM Na3PO4. The quenched samples were then transferred to a 96-well filter plate (Whatman, UNI-Filter GF/F Glass Fiber Filter, cat no. 7700-3310) installed on a filter plate vacuum manifold. Filter plates were washed four times with 10% TCA containing 20 mM Na3PO4 and then 4 times with methanol. 200 μl of scintillation fluid was then added to each well. The plates were sealed and the amount of radioactivity associated with the filters was quantified on a TopCount scintillation counter. The radioactivity incorporated was plotted as a function of the inhibitor concentration. The data was fitted to a competitive inhibition kinetics model to get the Ki for the compound.
The ADP produced from ATP by the human recombinant Lck kinase-catalyzed phosphorylation of poly Glu-Tyr substrate was quanitified using a coupled enzyme assay (Fox et al (1998) Protein Sci 7, 2249). In this assay one molecule of NADH is oxidised to NAD for every molecule of ADP produced in the kinase reaction. The disappearance of NADH can be conveniently followed at 340 nm.
The following were the final concentrations of the assay components: 0.025 M HEPES, pH 7.6, 10 mM MgCl2, 2 mM DTT, 5 mg/ml poly Glu-Tyr, and 50 nM of recombinant human Lck kinase. Final concentrations of the components of the coupled enzyme system were 2.5 mM phosphoenolpyruvate, 200 μM NADH, 30 μg/ml pyruvate kinase and 10 μg/ml lactate dehydrogenase.
In a typical assay, all the reaction components with the exception of ATP were pre-mixed and aliquoted into assay plate wells. Inhibitors dissolved in DMSO were added to the wells to give a final DMSO concentration of 2.5%. The assay plate was incubated at 30° C. for 10 min before initiating the reaction with 150 μM ATP. The absorbance change at 340 nm with time, the rate of the reaction, was monitored on a molecular devices plate reader. The data of rate as a function of the inhibitor concentration was fitted to competitive inhibition kinetics model to get the Ki for the compound.

As a reminder, the Ki is a dissociation constant, usually derived from enzyme kinetics or from competition with a known ligand. For the compound `CSc1sc(-c2ccnc(Nc3cccc(OCCCn4cnc(C)c4)c3)n2)c(C2CCCCC2)c1C#N` [VI-14], the Ki was under 100 nM.

Take `CSc1sc(-c2ccnc(Nc3cccc(OCCCN4CCOCC4)c3)n2)c(C2CCCCC2)c1C#N` [VI-15]: the Ki is under 100 nM.

For the compound `CSc1sc(-c2ccnc(Nc3cccc(S(N)(=O)=O)c3)n2)c(-c2ccccc2)c1C#N` [IIa-38, 3-[4-(4-cyano-5-methylsulfanyl-3-phenyl-thiophen-2-yl)-pyrimidin-2-ylamino]-benzenesulfonamide], the Ki was under 100 nM.

Turning to `CSc1sc(-c2ccnc(Nc3cccc(OCCCN(C)CCO)c3)n2)c(C2CCCCC2)c1C#N` [VI-1], the Ki is under 100 nM.

As to `CSc1sc(-c2ccnc(Nc3cccc(NC(=O)Cc4ccccn4)c3)n2)c(-c2cccnc2)c1C#N` [VI-136], the Ki is under 100 nM.

With `CSc1sc(-c2ccnc(Nc3cccc(OCCCN4CCC[C@H]4CO)c3)n2)c(C2CCCCC2)c1C#N` [VI-6], the Ki is under 100 nM.

Consider `CSc1sc(-c2ccnc(Nc3cccc(NC(=O)CC4CC4)c3)n2)c(-c2cccnc2)c1C#N` [VI-138, 3-cyano-4-(3-pyridyl)-5-[2-(3-N-cyclopropylacetamido)-aminophenylamino]-pyrimidin-4-yl-2-thiomethyl thiophene], for which the Ki was under 100 nM.

With `CSc1sc(-c2ccnc(Nc3cccc(OCCCn4ccnc4)c3)n2)c(C2CCCCC2)c1C#N` [VI-13], the Ki was under 100 nM.

For `CSc1sc(-c2nc(Nc3cccc(N)c3)ncc2C)c(C2CCCCC2)c1C#N` [Compound V-8, 5-[2-(3-Aminophenylamino)-5-methyl-pyrimidin-4-yl]-4-cyclohexyl-2-methylsulfanyl-thiophene-3-carbonitrile], the Ki was under 100 nM.

With `COCCNCCCOc1cccc(Nc2nccc(-c3sc(SC)c(C#N)c3C3CCCCC3)n2)c1` [VI-2], the Ki was under 100 nM.

On to `CSc1sc(-c2ccnc(Nc3cccc(NC(=O)CCN4CCCCC4)c3)n2)c(-c2cccnc2)c1C#N` [VI-131], for which the Ki is under 100 nM.

For `CSc1sc(-c2ccnc(Nc3cccc(OCCCN4CCSCC4)c3)n2)c(C2CCCCC2)c1C#N` [VI-16], the Ki is under 100 nM.

For `CCN1CCN(CCCOc2cccc(Nc3nccc(-c4sc(SC)c(C#N)c4C4CCCCC4)n3)c2)CC1` [VI-9], the Ki is under 100 nM.

For `CSc1sc(-c2ccnc(Nc3cccc(OCCCN4CCN(CCO)CC4)c3)n2)c(-c2cccc(O)c2)c1C#N` [VI-128], the Ki is under 100 nM.

As for `CSc1sc(-c2ccnc(Nc3cccc(OCCCN4CCN(CCO)CC4)c3)n2)c(-c2cccc(OCc3ccccc3)c2)c1C#N` [VI-126], the inhibitory constant (Ki) lay in the range of 100 to 1000 nM.

In the case of `CCN(CC)CCC(=O)Nc1cccc(Nc2nccc(-c3sc(SC)c(C#N)c3-c3cccnc3)n2)c1` [VI-140], the Ki is under 100 nM.

For the compound `CSc1sc(-c2ccnc(Nc3cccc(OCCCN4CCSC4)c3)n2)c(C2CCCCC2)c1C#N` [VI-17], the Ki was under 100 nM.

Consider `CSc1sc(-c2ccnc(Nc3cccc(OCCCN4CCN(Cc5ccncc5)CC4)c3)n2)c(C2CCCCC2)c1C#N` [VI-11], for which the Ki is under 100 nM.

Turning to `CSc1sc(-c2ccnc(Nc3cccc(NC(=O)CCC4NC(=O)CNC4=O)c3)n2)c(-c2cccnc2)c1C#N` (centres unmarked) [VI-139], the Ki is under 100 nM.

Regarding `CSc1sc(-c2ccnc(Nc3cccc(OCCCN4CCNCC4)c3)n2)c(-c2cccc(OCc3ccccc3)c2)c1C#N` [VI-125], the Ki lay in the range of 100 to 1000 nM.

As to `CSc1sc(-c2ccnc(Nc3cccc(O)c3)n2)c(-c2cccc(-c3ccncc3)c2)c1C#N` [IIa-105, 5-[2-(3-Hydroxy-phenylamino)-pyrimidin-4-yl]-2-methylsulfanyl-4-(3-pyridin-4-yl-phenyl)-thiophene-3-carbonitrile], the inhibition constant (Ki) is under 100 nM.

For the compound `CSc1sc(-c2ccnc(Nc3cccc(NC(=O)Cc4csc(N)n4)c3)n2)c(-c2cccnc2)c1C#N` [VI-137], the inhibition constant Ki was under 100 nM.

On to `CSc1sc(-c2ccnc(Nc3cccc(OCCCO)c3)n2)c(-c2cccc(OCc3ccccc3)c2)c1C#N` [VI-124], for which the Ki lay in the range of 100 to 1000 nM.

For the compound `CSc1sc(-c2ccnc(Nc3cccc(OCCCN4CCC(CO)CC4)c3)n2)c(-c2cccc(OCc3ccccc3)c2)c1C#N` [VI-127], the Ki lay within 100 to 1000 nM.

Take `CSc1sc(-c2ccnc(Nc3cccc(OCCCN4CCCC4)c3)n2)c(-c2cccnc2)c1C#N` [VI-122]: the Ki is under 100 nM.

As to `CSc1sc(-c2ccnc(Nc3cccc(OCCCN4CCC(CO)CC4)c3)n2)c(C2CCCCC2)c1C#N` [VI-5], the Ki is under 100 nM.

Take `CSc1sc(-c2ccnc(Nc3cccc(OCCCN4CCCC4)c3)n2)c(C2CCCCC2)c1C#N` [VI-12]: the Ki was under 100 nM.

In the case of `N#Cc1c(SCc2ccc(O)cc2)sc(-c2ccnc(Nc3ccccc3)n2)c1-c1ccccc1` [IIa-39, 2-(4-Hydroxy-benzylsulfanyl)-4-phenyl-5-(2-phenylamino-pyrimidin-4-yl)-thiophene-3-carbonitrile], the Ki is under 100 nM.

Take `CSc1sc(-c2ccnc(Nc3cccc(OCCCN4CCNCC4)c3)n2)c(-c2cccnc2)c1C#N` [VI-123]: the Ki fell in the range of 100 to 1000 nM.

In the case of `CSc1sc(-c2ccnc(Nc3cccc(OCCCN4CCC(O)CC4)c3)n2)c(C2CCCCC2)c1C#N` [VI-4], the Ki is under 100 nM.

Turning to `CSc1sc(-c2ccnc(Nc3cccc(OCCCN4CCNCC4)c3)n2)c(C2CCCCC2)c1C#N` [VI-10], the Ki was under 100 nM.

With `CSc1sc(-c2ccnc(Nc3cccc(OCCCO)c3)n2)c(-c2cccnc2)c1C#N` [VI-121], the Ki fell in the range of 100 to 1000 nM.

Regarding `CSc1sc(-c2ccnc(Nc3cccc(O)c3)n2)c(-c2ccccc2)c1C#N` [IIa-40, 5-[2-(3-Hydroxy-phenylamino)-pyrimidin-4-yl]-2-methylsulfanyl-4-phenyl-thiophene-3-carbonitrile], the Ki was under 100 nM.

As for `CSc1sc(-c2ccnc(Nc3cccc(OCCCNCCO)c3)n2)c(C2CCCCC2)c1C#N` [VI-3], the Ki is under 100 nM.

On to `CSc1sc(-c2ccnc(Nc3cccc(OCCCN4CCCC(O)C4)c3)n2)c(C2CCCCC2)c1C#N` (centres unmarked) [VI-8], for which the Ki was under 100 nM.

`CSc1sc(-c2nc(Nc3cccc(O)c3)ncc2C)c(-c2cccnc2)c1C#N` [Compound V-24]: the Ki is under 100 nM.

Turning to `CSc1sc(-c2ccnc(Nc3cccc(OCCCN4CCC(CO)CC4)c3)n2)c(-c2cccc(O)c2)c1C#N` [VI-129], the Ki is under 100 nM.

For `CSc1sc(-c2ccnc(Nc3cccc(OCCCN4CCN(CCO)CC4)c3)n2)c(C2CCCCC2)c1C#N` [VI-7], the Ki was under 100 nM.
